Experimental data as given in patent US20230085307A1, “PYRIDAZINONE COMPOUND AND HERBICIDE” (NISSAN CHEMICAL CORPORATION, priority 2019, published 2023).

What follows are compounds tested on Chinese sprangletop (assay: Test Example 3: herbicidal effect by foliage application, Wagner pot (Table 18, symbol D)). Settings: 320 g/ha.
Format: in vivo, chinese sprangletop (Leptochloa chinensis)
Summary of the method: (§1)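 Plants were sown in alluvial soil held under 0.1–0.5 cm standing water and grown 14 days in a greenhouse at 25–30 °C. An emulsifiable formulation, water-diluted to the set dose, was then sprayed onto the foliage, and effects were scored three weeks later using previously defined criteria.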

| SMILES | herbicidal effect on Chinese sprangletop (D) |
| --- | --- |
| Cc1nn(C)c(=O)c(-c2c(-c3ccc(C(F)(F)F)cc3)sc3cc(Cl)ccc23)c1O [3-145] | 5 (Herbicidal rate of 90% or more (almost completely withered)) |

Each compound was assayed on southern crabgrass (assay: Test Example 5: herbicidal effect by foliage application, plastic box (Table 20, symbol F)). Settings: 320 g/ha, foliage application after 14-day growth, evaluated three weeks after application.
Format: in vivo, southern crabgrass (Digitaria ciliaris)
Summary of the method: (§2)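 Plants were sown into sterilized diluvial soil under about 1.5 cm cover and kept in a greenhouse at 25° C. to 30° C. Fourteen days on, foliage received an even spray of the diluted emulsion. Herbicidal or crop effect was judged three weeks afterwards.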

| SMILES | herbicidal effect on F: southern crabgrass (evaluation grade 0-5) |
| --- | --- |
| Cc1nn(C)c(=O)c(-c2c(-c3ccc(C(F)(F)F)cc3)sc3cc(Cl)ccc23)c1O [3-145] | 0 (Herbicidal rate of 5% or less (almost no effect)) |

These compounds were tested on rice flat sedge (assay: Test Example 3: herbicidal effect by foliage application, Wagner pot (Table 18, symbol E)). Settings: 320 g/ha.
Format: in vivo, rice flat sedge (Cyperus iria)
Summary of the method: as §1

| SMILES | herbicidal effect on rice flat sedge (E) |
| --- | --- |
| Cc1nn(C)c(=O)c(-c2c(-c3ccc(C(F)(F)F)cc3)sc3cc(Cl)ccc23)c1O [3-145] | 4 (Herbicidal rate of 70% or more and less than 90%) |

These compounds were tested on Japanese bulrush (assay: Test Example 2: herbicidal activity, application during weed generation under submerged conditions (Table 17, symbol B)). Settings: AAH 320 g/ha; application during weed generation, submerged conditions.
Format: in vivo, Japanese bulrush (Schoenoplectus juncoides)
Summary of the method: (§3)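 Effect on each weed is rated three weeks post-treatment, using the same scoring criteria as the preceding test. Plants grow from mixed-sown seed in flooded alluvial soil (4 cm water) at 25° C. to 30° C., and are treated at one to two leaves with diluted emulsion dropped onto the water.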

| SMILES | herbicidal effect rating, B: Japanese bulrush |
| --- | --- |
| Cc1nn(C)c(=O)c(-c2c(-c3ccc(C(F)(F)F)cc3)sc3cc(Cl)ccc23)c1O [3-145] | 2 (Herbicidal rate of 20% or more and less than 40%) |

Each compound was assayed on lambsquarters (assay: Test Example 5: herbicidal effect by foliage application, plastic box (Table 20, symbol O)). Settings: 320 g/ha, foliage application after 14-day growth, evaluated three weeks after application.
Format: in vivo, lambsquarters (Chenopodium album)
Summary of the method: as §2

| SMILES | herbicidal effect on O: lambsquarters (evaluation grade 0-5) |
| --- | --- |
| Cc1nn(C)c(=O)c(-c2c(-c3ccc(C(F)(F)F)cc3)sc3cc(Cl)ccc23)c1O [3-145] | 3 (Herbicidal rate of 40% or more and less than 70%) |

These compounds were tested on barnyard grass (assay: Test Example 3: herbicidal effect by foliage application, Wagner pot (Table 18, symbol H)). Settings: 320 g/ha.
Format: in vivo, barnyard grass (Echinochloa crus-galli)
Summary of the method: as §1

| SMILES | herbicidal effect on barnyard grass (H) |
| --- | --- |
| Cc1nn(C)c(=O)c(-c2c(-c3ccc(C(F)(F)F)cc3)sc3cc(Cl)ccc23)c1O [3-145] | 3 (Herbicidal rate of 40% or more and less than 70%) |

What follows are compounds tested on oval-leafed pondweed (assay: Test Example 2: herbicidal activity, application during weed generation under submerged conditions (Table 17, symbol C)). Settings: AAH 320 g/ha; application during weed generation, submerged conditions.
Format: in vivo, oval-leafed pondweed (Monochoria vaginalis)
Summary of the method: as §3

| SMILES | herbicidal effect rating, C: oval-leafed pondweed |
| --- | --- |
| Cc1nn(C)c(=O)c(-c2c(-c3ccc(C(F)(F)F)cc3)sc3cc(Cl)ccc23)c1O [3-145] | 0 (Herbicidal rate of 5% or less (almost no effect)) |

Each compound was assayed on barnyard grass (assay: Test Example 5: herbicidal effect by foliage application, plastic box (Table 20, symbol H)). Settings: 320 g/ha, foliage application after 14-day growth, evaluated three weeks after application.
Format: in vivo, barnyard grass (Echinochloa crus-galli)
Summary of the method: as §2

| SMILES | herbicidal effect on H: barnyard grass (evaluation grade 0-5) |
| --- | --- |
| Cc1nn(C)c(=O)c(-c2c(-c3ccc(C(F)(F)F)cc3)sc3cc(Cl)ccc23)c1O [3-145] | 0 (Herbicidal rate of 5% or less (almost no effect)) |

What follows are compounds tested on blackgrass (assay: Test Example 5: herbicidal effect by foliage application, plastic box (Table 20, symbol J)). Settings: 320 g/ha, foliage application after 14-day growth, evaluated three weeks after application.
Format: in vivo, blackgrass (Alopecurus myosuroides)
Summary of the method: as §2

| SMILES | herbicidal effect on J: blackgrass (evaluation grade 0-5) |
| --- | --- |
| Cc1nn(C)c(=O)c(-c2c(-c3ccc(C(F)(F)F)cc3)sc3cc(Cl)ccc23)c1O [3-145] | 0 (Herbicidal rate of 5% or less (almost no effect)) |

The compounds below were run on Italian ryegrass (assay: Test Example 5: herbicidal effect by foliage application, plastic box (Table 20, symbol K)). Settings: 320 g/ha, foliage application after 14-day growth, evaluated three weeks after application.
Format: in vivo, Italian ryegrass (Lolium multiflorum)
Summary of the method: as §2

| SMILES | herbicidal effect on K: Italian ryegrass (evaluation grade 0-5) |
| --- | --- |
| Cc1nn(C)c(=O)c(-c2c(-c3ccc(C(F)(F)F)cc3)sc3cc(Cl)ccc23)c1O [3-145] | 0 (Herbicidal rate of 5% or less (almost no effect)) |

The compounds below were run on Japanese bulrush (assay: Test Example 1: herbicidal activity, application before weed generation under submerged conditions (Table 16, symbol B)). Settings: amount of applied herbicide 320 g/ha.
Format: in vivo, Japanese bulrush (Schoenoplectus juncoides)
Summary of the method: (§4)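 Submerged Wagner pots (alluvial soil, 4 cm water) sown with weed seeds and planted with 2.5-leaf rice seedlings; emulsifiable concentrate diluted in water applied to water surface on sowing day. Held in greenhouse at 25-30 °C; injury scored 0-5 by herbicidal rate after three weeks.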

| SMILES | Herbicidal effect, B: Japanese bulrush |
| --- | --- |
| Cc1nn(C)c(=O)c(-c2c(-c3ccc(C(F)(F)F)cc3)sc3cc(Cl)ccc23)c1O [3-145] | 2 (Herbicidal rate of 20% or more and less than 40%) |

Each compound was assayed on chickweed (assay: Test Example 5: herbicidal effect by foliage application, plastic box (Table 20, symbol P)). Settings: 320 g/ha, foliage application after 14-day growth, evaluated three weeks after application.
Format: in vivo, common chickweed (Stellaria media)
Summary of the method: as §2

| SMILES | herbicidal effect on P: chickweed (evaluation grade 0-5) |
| --- | --- |
| Cc1nn(C)c(=O)c(-c2c(-c3ccc(C(F)(F)F)cc3)sc3cc(Cl)ccc23)c1O [3-145] | 0 (Herbicidal rate of 5% or less (almost no effect)) |

These compounds were tested on late watergrass (assay: Test Example 1: herbicidal activity, application before weed generation under submerged conditions (Table 16, symbol A)). Settings: amount of applied herbicide 320 g/ha.
Format: in vivo, late watergrass (Echinochloa oryzicola)
Summary of the method: as §4

| SMILES | Herbicidal effect, A: late watergrass |
| --- | --- |
| Cc1nn(C)c(=O)c(-c2c(-c3ccc(C(F)(F)F)cc3)sc3cc(Cl)ccc23)c1O [3-145] | 3 (Herbicidal rate of 40% or more and less than 70%) |

The compounds below were run on velvetleaf (assay: Test Example 5: herbicidal effect by foliage application, plastic box (Table 20, symbol M)). Settings: 320 g/ha, foliage application after 14-day growth, evaluated three weeks after application.
Format: in vivo, velvetleaf (Abutilon theophrasti)
Summary of the method: as §2

| SMILES | herbicidal effect on M: velvetleaf (evaluation grade 0-5) |
| --- | --- |
| Cc1nn(C)c(=O)c(-c2c(-c3ccc(C(F)(F)F)cc3)sc3cc(Cl)ccc23)c1O [3-145] | 3 (Herbicidal rate of 40% or more and less than 70%) |

What follows are compounds tested on windgrass (assay: Test Example 5: herbicidal effect by foliage application, plastic box (Table 20, symbol L)). Settings: 320 g/ha, foliage application after 14-day growth, evaluated three weeks after application.
Format: in vivo, windgrass (Apera spica-venti)
Summary of the method: as §2

| SMILES | herbicidal effect on L: windgrass (evaluation grade 0-5) |
| --- | --- |
| Cc1nn(C)c(=O)c(-c2c(-c3ccc(C(F)(F)F)cc3)sc3cc(Cl)ccc23)c1O [3-145] | 5 (Herbicidal rate of 90% or more (almost completely withered)) |

The compounds below were run on wild oat (assay: Test Example 5: herbicidal effect by foliage application, plastic box (Table 20, symbol I)). Settings: 320 g/ha, foliage application after 14-day growth, evaluated three weeks after application.
Format: in vivo, wild oat (Avena fatua)
Summary of the method: as §2

| SMILES | herbicidal effect on I: wild oat (evaluation grade 0-5) |
| --- | --- |
| Cc1nn(C)c(=O)c(-c2c(-c3ccc(C(F)(F)F)cc3)sc3cc(Cl)ccc23)c1O [3-145] | 0 (Herbicidal rate of 5% or less (almost no effect)) |

The compounds below were run on persian speedwell (assay: Test Example 5: herbicidal effect by foliage application, plastic box (Table 20, symbol R)). Settings: 320 g/ha, foliage application after 14-day growth, evaluated three weeks after application.
Format: in vivo, Persian speedwell (Veronica persica)
Summary of the method: as §2

| SMILES | herbicidal effect on R: persian speedwell (evaluation grade 0-5) |
| --- | --- |
| Cc1nn(C)c(=O)c(-c2c(-c3ccc(C(F)(F)F)cc3)sc3cc(Cl)ccc23)c1O [3-145] | 0 (Herbicidal rate of 5% or less (almost no effect)) |

What follows are compounds tested on late watergrass (assay: Test Example 2: herbicidal activity, application during weed generation under submerged conditions (Table 17, symbol A)). Settings: AAH 320 g/ha; application during weed generation, submerged conditions.
Format: in vivo, late watergrass (Echinochloa oryzicola)
Summary of the method: as §3

| SMILES | herbicidal effect rating, A: late watergrass |
| --- | --- |
| Cc1nn(C)c(=O)c(-c2c(-c3ccc(C(F)(F)F)cc3)sc3cc(Cl)ccc23)c1O [3-145] | 3 (Herbicidal rate of 40% or more and less than 70%) |

The compounds below were run on green foxtail (assay: Test Example 5: herbicidal effect by foliage application, plastic box (Table 20, symbol G)). Settings: 320 g/ha, foliage application after 14-day growth, evaluated three weeks after application.
Format: in vivo, green foxtail (Setaria viridis)
Summary of the method: as §2

| SMILES | herbicidal effect on G: green foxtail (evaluation grade 0-5) |
| --- | --- |
| Cc1nn(C)c(=O)c(-c2c(-c3ccc(C(F)(F)F)cc3)sc3cc(Cl)ccc23)c1O [3-145] | 2 (Herbicidal rate of 20% or more and less than 40%) |

Each compound was assayed on redroot pigweed (assay: Test Example 5: herbicidal effect by foliage application, plastic box (Table 20, symbol N)). Settings: 320 g/ha, foliage application after 14-day growth, evaluated three weeks after application.
Format: in vivo, redroot pigweed (Amaranthus retroflexus)
Summary of the method: as §2

| SMILES | herbicidal effect on N: redroot pigweed (evaluation grade 0-5) |
| --- | --- |
| Cc1nn(C)c(=O)c(-c2c(-c3ccc(C(F)(F)F)cc3)sc3cc(Cl)ccc23)c1O [3-145] | 3 (Herbicidal rate of 40% or more and less than 70%) |

Each compound was assayed on oval-leafed pondweed (assay: Test Example 1: herbicidal activity, application before weed generation under submerged conditions (Table 16, symbol C)). Settings: amount of applied herbicide 320 g/ha.
Format: in vivo, oval-leafed pondweed (Monochoria vaginalis)
Summary of the method: as §4

| SMILES | Herbicidal effect, C: oval-leafed pondweed |
| --- | --- |
| Cc1nn(C)c(=O)c(-c2c(-c3ccc(C(F)(F)F)cc3)sc3cc(Cl)ccc23)c1O [3-145] | 0 (Herbicidal rate of 5% or less (almost no effect)) |
